{
  "source": "patent US20230340137A1",
  "about": "“METHODS, THERAPIES AND USES FOR TREATING CANCER” (PFIZER INC., priority 2020, published 2023)",
  "key": {"[1]": {"test_system": "CD8+ T cells co-cultured with MM.1S multiple myeloma cells", "assay": "PD-1 induction on CD8+ T cells co-cultured with MM.1S-luc cells, flow cytometry", "type": "cell-based, human", "settings": "1 nM BCMAxCD3 bispecific", "procedure": "CD3+ T cells from PBMCs (Stem Cell Technologies) were negatively selected using EasySep Human T cell enrichment kit (Stem Cell Technologies). 10,000 target Multiple Myeloma MM.1S cells expressing luciferase (MM.1S-luc) were seeded with 50,000 CD3^+ pan T cells in a clear 96-well V-bottom plate. Cells were treated with 1 nM BCMAxCD3 bispecific antibody and PD-1 expression was analyzed at 3, 24, 48 and 72 hours after addition of the BCMAxCD3 bispecific. At the specified time points, cells were collected from the wells, washed with PBS+2% FBS, and stained with ZombieNlR Viability dye (Biolegend) in PBS for 20 minutes at room temperature, followed by staining with antibodies against human CD8 and PD-1 (Biolegend). Samples were analyzed using FlowJo flow cytometry analysis software. Dead cells were removed from analysis by gating on ZombieNlR negative population. Samples were further gated on CD8^+ positive population. Percentage of PD-1^+ cells is expressed as PD-1 positive cells within the CD8^+ population."}, "[2]": {"test_system": "MM.1S-Luc-PD-L1 multiple myeloma cells", "assay": "Orthotopic MM.1S-Luc-PD-L1 multiple myeloma mouse model, luminescent imaging", "type": "in vivo, NSG mice", "settings": "BCMAxCD3 10 μg/kg single IV dose day 21, anti-PD-1 5 mg/kg IP twice a week", "procedure": "MM.1 S-Luc multiple myeloma cells were engineered to express PD-L1 and are referred to as MM.1S-Luc-PD-L1. MM.1S-Luc-PD-L1 cells were prepared as a single cell suspension of 5×10^6 cells for intravenous (IV) inoculation into NSG mice.\nTumor growth was monitored by luminescent imaging by intraperitoneal (IP) injection of luciferin solution in DPBS and imaged using Perkin Elmer IVIS Spectrum camera system. Animals were administered 2×10^7 expanded human T cells IV 19 days after tumor cell inoculation. Two days following T cell administration, a single dose of the BCMAxCD3 bispecific (10 μg/kg) was administered as a bolus IV injection. Anti-PD-1 antibody was administered twice a week as a bolus IP injection at 5 mg/kg for a total of 6 injections.\nTumor growth was monitored via imaging measurements collected twice weekly. Mice were imaged using the Perkin Elmer IVIS Spectrum camera system with automatic parameter determination and a maximum imaging time of 3 minutes. Living Image software was used to collect the data. Regions of Interest (ROIs) were drawn around the entire body of the mouse, excluding as much as possible of the tail. Background flux, as measured on the anesthesia manifold, is subtracted from each ROI. Tumor measurements are expressed as total flux expressed in photons/sec (p/s). Study was terminated at day 40 post tumor inoculation."}, "Raji-luc lymphoma cells": {"test_system": "Raji-luc lymphoma cells", "assay": "BCMAxCD3 mediated cell killing with human T cells, with or without GSI (luciferase viability)", "type": "cell-based", "settings": "with or without 1 μM GSI, 60 hours", "procedure": "CD3^+ T cells from PBMCs (Stem Cell Technologies) were negatively selected using EasySep Human T cell enrichment kit (Stem Cell Technologies). 10,000 target lymphoma cells expressing luciferase (Raji-luc) were treated with 1 μM GSI. After 24 hours, cells were seeded with 50,000 CD3^+ pan T cells in a clear 96-well V-bottom plate. Cells were further treated with a range of BCMAxCD3 bispecific concentrations with or without 1 μM GSI. 60 hours after treatment, luciferase activity in treated cells was analyzed using NeoLite reagent kit (Perkin Elmer) and acquired on VictorX multimode plate reader (Perkin Elmer). Cell viability was calculated by dividing luciferase activity of treated cells over luciferase activity of untreated control (no BCMAxCD3 bispecific antibody added)."}, "[3]": {"assay": "Phase 1 clinical study NCT03269136, preliminary pharmacokinetic analysis", "type": "in vivo, human", "settings": "preliminary pharmacokinetic (PK) analysis", "procedure": "Therefore, a fixed dose is suitable for the dosing of PF-06863135. Based on the encouraging efficacy data and safety data obtained from Part I of Study, a promising RP2D for Part 2A of the study could be a fixed dose equivalent of 1000 μg/kg (ie, 76 mg) of PF-06863135 either in Q1W or Q2W. A fixed dose equivalent of 600 μg/kg (ie, 44 mg) will likely be used as a priming dose on cycle zero day 1. The initial dose of 44 mg serves as a priming dose and is designed to mitigate the CRS symptoms of the later 76 mg dose. […] Subsequently, the 44 mg (priming) and 76 mg (maintenance) were selected as the single agent RP2D dose. Patient will be administered a single priming dose of 44 mg SC of PF06863135, followed by maintenance dosing of 76 mg Q1W SC or 76 mg Q2W starting 7 days after the single priming dose."}},
  "data": [
    {"substance": "PF-06863135: heterodimeric humanized full-length bispecific antibody, one BCMA binding arm and one CD3 binding arm, modified human IgG2Δa Fc", "values": [
      {"measurement": "% PD-1 (of CD8+ T cells)", "setting": "[1]; 3 hours", "result": "12.8 ± 0.6", "unit": "%"},
      {"measurement": "% PD-1 (of CD8+ T cells)", "setting": "[1]; 24 hours", "result": "18.9 ± 1.2", "unit": "%"},
      {"measurement": "% PD-1 (of CD8+ T cells)", "setting": "[1]; 48 hours", "result": "69.9 ± 3.1", "unit": "%"},
      {"measurement": "% PD-1 (of CD8+ T cells)", "setting": "[1]; 72 hours", "result": "69.9 ± 3.1", "unit": "%"},
      {"measurement": "Tumor measurements expressed as total flux", "setting": "[2]; day 15 post tumor cell inoculation (before dosing)", "result": "1.513 × 10^7 p/s"},
      {"measurement": "Tumor measurements expressed as total flux", "setting": "[2]; day 18 post tumor cell inoculation (before dosing)", "result": "8.343 × 10^7 p/s"},
      {"measurement": "Tumor measurements expressed as total flux", "setting": "[2]; day 20 post tumor cell inoculation (before dosing)", "result": "1.788 × 10^8 p/s"},
      {"measurement": "Tumor measurements expressed as total flux", "setting": "[2]; day 25 post tumor cell inoculation", "result": "2.2729 × 10^7 p/s"},
      {"measurement": "Tumor measurements expressed as total flux", "setting": "[2]; day 28 post tumor cell inoculation", "result": "7.082 × 10^7 p/s"},
      {"measurement": "Tumor measurements expressed as total flux", "setting": "[2]; day 32 post tumor cell inoculation", "result": "7.076 × 10^7 p/s"},
      {"measurement": "Tumor measurements expressed as total flux", "setting": "[2]; day 35 post tumor cell inoculation", "result": "8.712 × 10^8 p/s"},
      {"measurement": "Tumor measurements expressed as total flux", "setting": "[2]; day 39 post tumor cell inoculation", "result": "6.776 × 10^8 p/s"},
      {"measurement": "Raji Cell Viability", "setting": "Raji-luc lymphoma cells; BCMA × CD3 0.00064 nM", "result": "94 ± 3.7", "unit": "% control"},
      {"measurement": "Raji Cell Viability", "setting": "Raji-luc lymphoma cells; BCMA × CD3 0.0032 nM", "result": "107 ± 4.5", "unit": "% control"},
      {"measurement": "Raji Cell Viability", "setting": "Raji-luc lymphoma cells; BCMA × CD3 0.016 nM", "result": "105.8 ± 10.2", "unit": "% control"},
      {"measurement": "Raji Cell Viability", "setting": "Raji-luc lymphoma cells; BCMA × CD3 0.08 nM", "result": "89.3 ± 5.7", "unit": "% control"},
      {"measurement": "Raji Cell Viability", "setting": "Raji-luc lymphoma cells; BCMA × CD3 0.4 nM", "result": "88.1 ± 18.4", "unit": "% control"},
      {"measurement": "Raji Cell Viability", "setting": "Raji-luc lymphoma cells; BCMA × CD3 2 nM", "result": "71 ± 9.7", "unit": "% control"},
      {"measurement": "Raji Cell Viability", "setting": "Raji-luc lymphoma cells; BCMA × CD3 10 nM", "result": "82.1 ± 9.7", "unit": "% control"},
      {"measurement": "Raji Cell Viability", "setting": "Raji-luc lymphoma cells; BCMA × CD3 50 nM", "result": "80 ± 13.2", "unit": "% control"},
      {"measurement": "body weight as factor on PF-06863135 exposure", "setting": "[3]", "result": "not a clinically relevant factor"}
    ]}
  ]
}
